Test results as given in the supplement of paper PMC11061612.

What was measured:
[1] = compound: Cc1cc2ncnn2cc1Nc1ncc2c(n1)n(C1CCOCC1)c(=O)n2C [AZD7648]; conditions: max 10 µM
Method in brief: (§1)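 Cancer cell lines were plated in 1536-well plates in 7.5 μl of DMEM/F12 or RPMI with 10% FBS and kept 24 hours at 37°C and 5% CO2 before 72 hours of dosing, with final DMSO typically 0.2%. CellTiter-Glo 2.0 luminescence measured viability, scaled between blank-well and DMSO-well means. Dose responses were fitted to a two-parameter logistic curve with a non-linear mixed effects model. This fit gives the single-agent IC50.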

[2] = compound: CC(C)n1c(=O)n(C)c2cnc3cc(F)c(-c4ccc(OCCCN5CCCCC5)nc4)cc3c21 [AZD1390]; conditions: max 0.3 µM
Method in brief: as §1

[3] = compound: CC1=C(C(=CC=C1)Cl)NC(=O)C2=CN=C(S2)NC3=CC(=NC(=N3)C)N4CCN(CC4)CCO [Dasatinib]; conditions: max 2 µM
Method in brief: as §1

[4] = compound: COc1nnc2ccc(N3CCC(c4ccc(OCCN5CCN(C)C(=O)[C@H]5C)cc4)CC3)nn12 [AZD5153]; conditions: max 1 µM
Method in brief: as §1

[5] = compound: COc1cccc(OCCCN)c1-c1cc(Nc2cnc(C#N)cn2)n[nH]1 [Prexasertib]; conditions: max 1 µM
Method in brief: as §1

[6] = compound: CN(C)CCCOc1ccc(-c2ccc3ncc4c(c3c2)n(C2CCOCC2)c(=O)n4C)cn1 [AZD0156]; conditions: max 3 µM
Method in brief: as §1

[7] = compound: COc1cc2ncnc(Nc3ccc(F)c(Cl)c3)c2cc1OCCCN1CCOCC1 [Gefitinib]; conditions: max 10 µM
Method in brief: as §1

[8] = compound: CCN(CCO)CCCOc1ccc2c(Nc3cc(CC(=O)Nc4cccc(F)c4)[nH]n3)ncnc2c1 [AZD2811]; conditions: max 1 µM
Method in brief: as §1

[9] = compound: Cn1cnc2c(F)c(Nc3ccc(Br)cc3Cl)c(C(=O)NOCCO)cc21 [Selumetinib]; conditions: max 10 µM
Method in brief: as §1

[10] = compound: CS(=O)(=O)CCNCc1ccc(-c2ccc3ncnc(Nc4ccc(OCc5cccc(F)c5)c(Cl)c4)c3c2)o1 [Lapatinib]; conditions: max 10 µM
Method in brief: as §1

[11] = compound: CC(=O)Nc1cccc(-n2c(=O)n(C3CC3)c(=O)c3c(Nc4ccc(I)cc4F)n(C)c(=O)c(C)c32)c1 [Trametinib]; conditions: max 1 µM
Method in brief: as §1

[12] = compound: C=CCn1c(=O)c2cnc(Nc3ccc(N4CCN(C)CC4)cc3)nc2n1-c1cccc(C(C)(C)O)n1 [AZD1775]; conditions: max 3 µM
Method in brief: as §1

[13] = compound: C1CN(CCC1(C(=O)N[C@@H](CCO)C2=CC=C(C=C2)Cl)N)C3=NC=NC4=C3C=CN4 [Capivasertib]; conditions: max 10 µM
Method in brief: as §1

[14] = compound: CN(CC[C@H](CSC1=CC=CC=C1)NC2=C(C=C(C=C2)S(=O)(=O)NC(=O)C3=CC=C(C=C3)N4CCC(CC4)[C@H](C5=CC=CC=C5C6=CC=C(C=C6)Cl)O)S(=O)(=O)C(F)(F)F)CCO [AZD4320]; conditions: max 1 µM
Method in brief: as §1

[15] = compound: COc1cccc2c1C(=O)c1c(O)c3c(c(O)c1C2=O)C[C@@](O)(C(=O)CO)C[C@@H]3O[C@H]1C[C@H](N)[C@H](O)[C@H](C)O1 [Doxorubicin]; conditions: max 1 µM
Method in brief: as §1

[16] = compound: COc1cc(Nc2ncc3c(n2)-c2ccc(Cl)cc2C(c2c(F)cccc2OC)=NC3)ccc1C(=O)O [Alisertib]; conditions: max 10 µM
Method in brief: as §1

[17] = compound: C[C@@H](Oc1cc(-c2cnn(C3CCNCC3)c2)cnc1N)c1c(Cl)ccc(F)c1Cl [Crizotinib]; conditions: max 10 µM
Method in brief: as §1

[18] = compound: C[C@@H](Nc1cc(F)cc(F)c1)c1cc(C(=O)N(C)C)cc2c(=O)cc(N3CCOCC3)oc12 [AZD8186]; conditions: max 3 µM
Method in brief: as §1

[19] = compound: O=C(c1cc(Cc2n[nH]c(=O)c3ccccc23)ccc1F)N1CCN(C(=O)C2CC2)CC1 [Olaparib]; conditions: max 10 µM
Method in brief: as §1

[20] = compound: CCc1c2c(nc3ccc(O)cc13)-c1cc3c(c(=O)n1C2)COC(=O)[C@]3(O)CC [SN-38]; conditions: max 0.3 µM
Method in brief: as §1

[21] = compound: CC1=CN2[C@@H](C1)C=NC3=CC(=C(C=C3C2=O)OC)OCCCCCOC4=C(C=C5C(=C4)N=C[C@@H]6CC(=CN6C5=O)C)OC [SG3199]; conditions: max 0.001 µM
Method in brief: as §1

[22] = compound: Cc1c2c(nn1C)CSCc1cc(n(C)n1)CSc1cc(c3ccccc3c1)OCCCc1c(C(=O)O)n(C)c3c-2c(Cl)ccc13 [AZD5991]; conditions: max 1 µM
Method in brief: as §1

[23] = compound: C[C@@H](c1ccc2nccn2c1)n1nnc2ncc(-c3cnn(C)c3)nc21 [Savolitinib]; conditions: max 1 µM
Method in brief: as §1

[24] = compound: CC(=O)c1c(C)c2cnc(Nc3ccc(N4CCNCC4)cn3)nc2n(C2CCCC2)c1=O [Palbociclib]; conditions: max 10 µM
Method in brief: as §1

[25] = compound: CC1(C)CCC(CN2CCN(c3ccc(C(=O)NS(=O)(=O)c4ccc(NCC5CCOCC5)c([N+](=O)[O-])c4)c(Oc4cnc5[nH]ccc5c4)c3)CC2)=C(c2ccc(Cl)cc2)C1 [Venetoclax]; conditions: max 1 µM
Method in brief: as §1

[26] = compound: Cc1nc(-c2cn3c(n2)-c2ccc(-c4cnn(C(C)(C)C(N)=O)c4)cc2OCC3)n(C(C)C)n1 [Taselisib]; conditions: max 10 µM
Method in brief: as §1

[27] = compound: C[C@@H]1COCCN1C2=NC(=NC(=C2)C3(CC3)[S@](=N)(=O)C)C4=C5C=CNC5=NC=C4 [AZD6738]; conditions: max 10 µM
Method in brief: as §1

Cell Line	IC50, cell viability 72 h [1]	IC50, cell viability 72 h [2]	IC50, cell viability 72 h [3]	IC50, cell viability 72 h [4]	IC50, cell viability 72 h [5]	IC50, cell viability 72 h [6]	IC50, cell viability 72 h [7]	IC50, cell viability 72 h [8]	IC50, cell viability 72 h [9]	IC50, cell viability 72 h [10]	IC50, cell viability 72 h [11]	IC50, cell viability 72 h [12]	IC50, cell viability 72 h [13]	IC50, cell viability 72 h [14]	IC50, cell viability 72 h [15]	IC50, cell viability 72 h [16]	IC50, cell viability 72 h [17]	IC50, cell viability 72 h [18]	IC50, cell viability 72 h [19]	IC50, cell viability 72 h [20]	IC50, cell viability 72 h [21]	IC50, cell viability 72 h [22]	IC50, cell viability 72 h [23]	IC50, cell viability 72 h [24]	IC50, cell viability 72 h [25]	IC50, cell viability 72 h [26]	IC50, cell viability 72 h [27]
23132-87 (Gastric Carcinoma)	> 10 µM	> 0.3 µM	> 2 µM	> 1 µM	0.0326 µM	> 3 µM	> 10 µM	> 1 µM	> 10 µM	> 10 µM	> 1 µM	0.375 µM	> 10 µM	> 1 µM	0.369 µM	> 10 µM	> 10 µM	> 3 µM	> 10 µM	0.0221 µM	> 0.001 µM	0.348 µM	> 1 µM	> 10 µM	> 1 µM	> 10 µM	4.79 µM
CAL-120 (Breast Carcinoma)	> 10 µM	> 0.3 µM	> 2 µM	> 1 µM	0.656 µM	> 3 µM	> 10 µM	> 1 µM	> 10 µM	> 10 µM	> 1 µM	1.62 µM	> 10 µM	0.825 µM	> 1 µM	> 10 µM	> 10 µM	> 3 µM	> 10 µM	0.296 µM	> 0.001 µM	> 1 µM	> 1 µM	> 10 µM	> 1 µM	> 10 µM	> 10 µM
FADU (Head and Neck Carcinoma)	> 10 µM	> 0.3 µM	> 2 µM	> 1 µM	0.0791 µM	> 3 µM	9.02 µM	> 1 µM	> 10 µM	3.16 µM	> 1 µM	> 3 µM	> 10 µM	> 1 µM	0.312 µM	> 10 µM	> 10 µM	> 3 µM	> 10 µM	0.0063 µM	> 0.001 µM	0.407 µM	> 1 µM	> 10 µM	> 1 µM	3.32 µM	> 10 µM
GB-1 (Glioblastoma)	> 10 µM	> 0.3 µM	> 2 µM	> 1 µM	0.951 µM	> 3 µM	> 10 µM	> 1 µM	> 10 µM	> 10 µM	> 1 µM	> 3 µM	> 10 µM	> 1 µM	> 1 µM	> 10 µM	> 10 µM	> 3 µM	> 10 µM	0.0327 µM	> 0.001 µM	> 1 µM	> 1 µM	> 10 µM	> 1 µM	9.75 µM	> 10 µM
GP5d (Colorectal Carcinoma)	> 10 µM	> 0.3 µM	> 2 µM	0.168 µM	0.0233 µM	> 3 µM	> 10 µM	0.764 µM	0.34 µM	> 10 µM	0.0174 µM	0.542 µM	1.5 µM	> 1 µM	0.552 µM	5.02 µM	6.99 µM	> 3 µM	> 10 µM	0.073 µM	> 0.001 µM	0.329 µM	> 1 µM	> 10 µM	> 1 µM	0.254 µM	3.64 µM
